Test results reported in patent publication US9266904B2, “6-bridged heteroaryldihydropyrimidines for the treatment and prophylaxis of hepatitis B virus infection” (priority 2013, dated 2016).
Like-named read-outs stand apart in the source and are kept apart here.

Tests used:
[1] = Human microsomal clearance assay; assay type: in vitro ADME
Method: Microsomes were preincubated with test compound for 10 minutes at 37° C. in 100 mM phosphate buffer with pH 7.4. The reactions were initiated by adding NADPH regenerating system to give a final incubation volume of 400 μL. The incubations finally contained 1 μM test compound, 0.5 mg/mL liver microsomal protein, 3.0 mM glucose 6-phosphate, 1.0 mM NADP, 3.0 mM MgCl2 and 0.05 mg/mL glucose 6-phosphate dehydrogenase in 100 mM phosphate buffer with pH 7.4. After incubation times of 0, 3, 6, 9, 15 and 30 minutes, 50 μL, incubation was transferred to the quench solution containing the internal standard which was 2 μM tolbutamide. After precipitation and centrifugation, test compound concentrations in the samples were determined by LC-MS/MS. Controls of no NADPH regenerating system at zero and 30 minutes were also prepared and analyzed.

[2] = system: HBV replication in HepG2.2.15 cells; assay: Anti-HBV activity in vitro in HepG2.2.15 cells (extracellular HBV DNA by qPCR); assay type: cell-based; conditions: read-out: EC50
Source text: HepG2.2.15 and HepDE19 are stably-transfected cell lines containing the HBV genome. Both cell lines are derived from the hepatoblastoma cell line Hep G2 (American Type Culture Collection, ATCC® HB-8065™) by the published procedures described in references: M A Selles et al. Proc. Natl. Acad. Sci. USA 1987, 84, 1005-1009 and H Guo et al. Journal of Virology 2007, 81, 12472-12484, respectively. Both cell lines were maintained in Dulbecco's modified Eagle's medium (DMEM)-F12 medium supplemented with 10% fetal bovine serum, 100 U/mL penicillin, 100 μg/mL streptomycin, and 0.5 mg/mL of G418.
While HepG2.2.15 cells constitutively support HBV replication and production of virus particles, HepDE19 cells are inducible by tetracycline. Addition of 1 μg/mL tetracycline in culture medium suppresses HBV replication in HepDE19 cells, whereas switching to tetracycline-free medium resumes this process.
HepG2.2.15 cells were seeded into 96-well plates (3×10^4 cells in 100 μL media per well) and incubated overnight at 37° C. The test compounds were serially half-log diluted in DMSO, then diluted 100 times in culture media. 100 μL diluted compounds were added into the plates to reach 0.5% final concentration of DMSO in every well. Five days after compound treatment, culture supernatant was collected for further analysis.
For quantitative PCR detection of extracellular HBV DNA, 100 μL culture supernatant was collected and processed in MagNA Pure 96 Nucleic Acid Purification System (Roche Applied Science) for viral DNA extraction. The extracted samples were subjected to HBV DNA quantification by qPCR. The effective compound concentration at which HBV replication is inhibited by 50% (EC50) was determined.
The Examples were tested in the above assays as described herein and found to have EC50<1 μM in HepG2.2.15 assay.

[3] = Anti-HBV activity in HepG2.2.15 cells
[4] = Hepatitis B virus, HepG2.2.15, Anti-HBV activity in HepG2.2.15 cells

| Compound | CLh ([1]; human microsomal clearance) [mL/min/kg] | EC50 [2, 3] [nM] | CLh ([1]; human, 1 μM, pH 7.4) [mL/min/kg] | EC50 [2, 4] [nM] |
| --- | --- | --- | --- | --- |
| 2-[(1R,5R,7S)-9-[[(4S)-4-(3,4-difluoro-2-methyl-phenyl)-5-methoxycarbonyl-2-thiazol-2-yl-1,4-dihydropyrimidin-6-yl]methyl]-6,6-difluoro-3-oxa-9-azabicyclo[3.3.1]nonan-7-yl]acetic acid or 2-[(1S,5S,7R)-9-[[(4S)-4-(3,4-difluoro-2-methyl-phenyl)-5-methoxycarbonyl-2-thiazol-2-yl-1,4-dihydropyrimidin-6-yl]methyl]-6,6-difluoro-3-oxa-9-azabicyclo[3.3.1]nonan-7-yl]acetic acid [Example 132] | 2.6 | 10.3 | – | – |
| COC(=O)C1=C(CN2C3CC(F)(F)C2C[C@](O)(CC(=O)O)C3)NC(c2nccs2)=N[C@H]1c1ccc(F)cc1Cl (single isomer, unassigned) [Example 117] | – | – | 1.8 | 40.2 |
| COC(=O)C1=C(CN2C3COCC2CC(OC(C)=O)C3)NC(c2nccs2)=N[C@H]1c1ccc(F)cc1Cl (stereo partly drawn) [Example 8, (R)-6-(7-Acetoxy-3-oxa-9-aza-bicyclo[3.3.1]non-9-ylmethyl)-4-(2-chloro-4-fluoro-phenyl)-2-thiazol-2-yl-1,4-dihydro-pyrimidine-5-carboxylic acid methyl ester] | – | – | 0 | – |
| COC(=O)C1=C(CN2C3COCC2CN(C(N)=O)C3)NC(c2nccs2)=N[C@H]1c1ccc(F)cc1Cl [Example 18, (R)-6-(7-Carbamoyl-3-oxa-7,9-diaza-bicyclo[3.3.1]non-9-ylmethyl)-4-(2-chloro-4-fluoro-phenyl)-2-thiazol-2-yl-1,4-dihydro-pyrimidine-5-carboxylic acid methyl ester] | – | – | 1.3 | 20 |
| COC(=O)C1=C(CN2C3COCC2CN(C(=O)CO)C3)NC(c2nccs2)=N[C@H]1c1ccc(F)cc1Cl [Example 21, (R)-4-(2-Chloro-4-fluoro-phenyl)-6-[7-(2-hydroxy-acetyl)-3-oxa-7,9-diaza-bicyclo[3.3.1]non-9-ylmethyl]-2-thiazol-2-yl-1,4-dihydro-pyrimidine-5-carboxylic acid methyl ester] | – | – | 4.3 | 20 |
| COC(=O)C1=C(CN2[C@@H]3COC[C@H]2C[C@@H](NC(N)=O)C3)NC(c2nccs2)=N[C@H]1c1ccc(F)cc1Cl [Example 57, Methyl (4R)-4-(2-chloro-4-fluoro-phenyl)-2-thiazol-2-yl-6-[[(1S,5R)-7-endo-ureido-3-oxa-9-azabicyclo[3.3.1]nonan-9-yl]methyl]-1,4-dihydropyrimidine-5-carboxylate] | – | – | 5.0 | 21.9 |
| COC(=O)C1=C(CN2[C@H]3C[C@@H](CC(=O)O)C[C@@H]2C(F)(F)C3)NC(c2nccs2)=N[C@H]1c1ccc(F)cc1Cl [Example 87, 2-[(1S,3R,5R)-8-[[(4R)-4-(2-chloro-4-fluoro-phenyl)-5-methoxycarbonyl-2-thiazol-2-yl-1,4-dihydropyrimidin-6-yl]methyl]-6,6-difluoro-8-azabicyclo[3.2.1]octan-3-yl]acetic acid] | – | – | 0 | 39.4 |
| COC(=O)C1=C(CN2[C@H]3C[C@@H](CC(=O)O)C[C@@H]2C(F)(F)C3)NC(c2nccs2)=N[C@H]1c1cccc(F)c1Cl [Example 89, 2-[(1S,3R,5R)-8-[[(4R)-4-(2-chloro-3-fluoro-phenyl)-5-methoxycarbonyl-2-thiazol-2-yl-1,4-dihydropyrimidin-6-yl]methyl]-6,6-difluoro-8-azabicyclo[3.2.1]octan-3-yl]acetic acid] | – | – | 0 | 30.5 |
| COC(=O)C1=C(CN2[C@H]3C[C@@H](CC(=O)O)C[C@@H]2C(F)(F)C3)NC(c2nccs2)=N[C@H]1c1ccccc1Cl [Example 91, 2-[(1S,3R,5R)-8-[[(4R)-4-(2-chlorophenyl)-5-methoxycarbonyl-2-thiazol-2-yl-1,4-dihydropyrimidin-6-yl]methyl]-6,6-difluoro-8-azabicyclo[3.2.1]octan-3-yl]acetic acid] | – | – | 5.1 | 90.7 |
| CCOC(=O)C1=C(CN2[C@@H]3C[C@H](CC(=O)O)C[C@H]2C(F)(F)C3)NC(c2nccs2)=N[C@H]1c1ccccc1Br [Example 92, 2-[(1R,3S,5S)-8-[[(4R)-4-(2-bromophenyl)-5-ethoxycarbonyl-2-thiazol-2-yl-1,4-dihydropyrimidin-6-yl]methyl]-6,6-difluoro-8-azabicyclo[3.2.1]octan-3-yl]acetic acid] | – | – | 1.7 | 1.5 |
| CCOC(=O)C1=C(CN2[C@H]3C[C@@H](CC(=O)O)C[C@@H]2C(F)(F)C3)NC(c2nccs2)=N[C@H]1c1ccccc1Br [Example 93, 2-[(1S,3R,5R)-8-[[(4R)-4-(2-bromophenyl)-5-ethoxycarbonyl-2-thiazol-2-yl-1,4-dihydropyrimidin-6-yl]methyl]-6,6-difluoro-8-azabicyclo[3.2.1]octan-3-yl]acetic acid] | – | – | 0.2 | 28.9 |
| COC(=O)C1=C(CN2[C@@H]3C[C@H](CC(=O)O)C[C@H]2C(F)(F)C3)NC(c2nccs2)=N[C@H]1c1cccc(F)c1Br [Example 94, 2-[(1R,3S,5S)-8-[[(4R)-4-(2-bromo-3-fluoro-phenyl)-5-methoxycarbonyl-2-thiazol-2-yl-1,4-dihydropyrimidin-6-yl]methyl]-6,6-difluoro-8-azabicyclo[3.2.1]octan-3-yl]acetic acid] | – | – | 0 | 21.7 |
| COC(=O)C1=C(CN2[C@H]3C[C@@H](CC(=O)O)C[C@@H]2C(F)(F)C3)NC(c2nccs2)=N[C@H]1c1cccc(F)c1Br [Example 95, 2-[(1S,3R,5R)-8-[[(4R)-4-(2-bromo-3-fluoro-phenyl)-5-methoxycarbonyl-2-thiazol-2-yl-1,4-dihydropyrimidin-6-yl]methyl]-6,6-difluoro-8-azabicyclo[3.2.1]octan-3-yl]acetic acid] | – | – | 0 | 31.1 |
| COC(=O)C1=C(CN2[C@@H]3C[C@H](CC(=O)O)C[C@H]2C(F)(F)C3)NC(c2nccs2)=N[C@H]1c1ccc(Cl)c(F)c1 [Example 96, 2-[(1R,3S,5S)-8-[[(4S)-4-(4-chloro-3-fluoro-phenyl)-5-methoxycarbonyl-2-thiazol-2-yl-1,4-dihydropyrimidin-6-yl]methyl]-6,6-difluoro-8-azabicyclo[3.2.1]octan-3-yl]acetic acid] | – | – | 1.8 | 6.8 |
| COC(=O)C1=C(CN2[C@H]3C[C@@H](CC(=O)O)C[C@@H]2C(F)(F)C3)NC(c2nccs2)=N[C@H]1c1ccc(Cl)c(F)c1 [Example 97, 2-[(1S,3R,5R)-8-[[(48)-4-(4-chloro-3-fluoro-phenyl)-5-methoxycarbonyl-2-thiazol-2-yl-1,4-dihydropyrimidin-6-yl]methyl]-6,6-difluoro-8-azabicyclo[3.2.1]octan-3-yl]acetic acid] | 0 | 156 | – | – |
| CCOC(=O)C1=C(CN2[C@@H]3C[C@H](CC(=O)O)C[C@H]2C(F)(F)C3)NC(c2nccs2)=N[C@H]1c1cccc(F)c1Cl [Example 98, 2-[(1R,3S,5S)-8-[[(4R)-4-(2-chloro-3-fluoro-phenyl)-5-ethoxycarbonyl-2-thiazol-2-yl-1,4-dihydropyrimidin-6-yl]methyl]-6,6-difluoro-8-azabicyclo[3.2.1]octan-3-yl]acetic acid] | – | – | 4.5 | 0.7 |
| CCOC(=O)C1=C(CN2[C@H]3C[C@@H](CC(=O)O)C[C@@H]2C(F)(F)C3)NC(c2nccs2)=N[C@H]1c1cccc(F)c1Cl [Example 99, 2-[(1S,3R,5R)-8-[[(4R)-4-(2-chloro-3-fluoro-phenyl)-5-ethoxycarbonyl-2-thiazol-2-yl-1,4-dihydropyrimidin-6-yl]methyl]-6,6-difluoro-8-azabicyclo[3.2.1]octan-3-yl]acetic acid] | – | – | 3 | 12.6 |
| COC(=O)C1=C(CN2[C@@H]3COC[C@H]2[C@H](F)[C@@H](CC(=O)O)C3)NC(c2nccs2)=N[C@H]1c1cccc(F)c1Cl [Example 100, 2-[(1S,5S,6R,7R)-9-[[(4R)-4-(2-chloro-3-fluoro-phenyl)-5-methoxycarbonyl-2-thiazol-2-yl-1,4-dihydropyrimidin-6-yl]methyl]-6-fluoro-3-oxa-9-azabicyclo[3.3.1]nonan-7-yl]acetic acid] | – | – | 0 | 283 |
